Tested on: Streptozotocin (STZ)-treated mice
Assay: Blood glucose lowering in Streptozotocin (STZ)-treated mice
Type: in vivo
Conditions: insulin 1 IU/kg subcutaneously
Protocol: The efficacy of the Artemisia dracunculus extract was evaluated in Streptozotocin (STZ)-treated mice. STZ induces diabetes by destroying most, if not all, of the beta cells of the pancreas, leaving the animals with little or no insulin production and severe hyperglycemia [Hisashi, et al., European Journal of Pharmacology, 87:237-243 (1983)]. […] Mice were treated with STZ as described by Hisashi et al., European Journal of Pharmacology, 87:237-243 (1983). A 500 mg/kg dose of Artemisia dracunculus extract was administered daily by oral gavage to STZ-treated mice for a period of 7 days. Additionally, a dose of insulin (1 IU/kg) was administered. subcutaneously to STZ-treated mice, while 20 ml/kg of vehicle only (0.9% NaCl or 2% Tween 80 in distilled water) was administered to STZ-treated mice, as a control. […] Regardless of mechanism, however, the results establish that plant extracts, such as the mildly polar ethanolic extract of A. dracunculus, can be orally administered in a dose effective in lowering blood glucose levels.

With insulin the “reduction in blood glucose concentrations” value was 42%.

Reference: patent publication US6893627B2, “Method for treating type 2 diabetes with an extract of Artemisia” (Rutgers, The State University of New Jersey, priority 2001, dated 2005)
